Laboratory results reported in article PMC9126943, “ADAMTS4-specific MR probe to assess aortic aneurysms in vivo using synthetic peptide libraries” (Nature Communications, 2022).
Several values for one entry are separate records, joined by “and”; a condition that tells them apart may be missing. Equal values may be shown once. Entries after “also recorded” stand apart in the source; their conditions may differ. Blank lines part the entries; values can stand above or below the molecule they belong to. Where a SMILES comes first, the peptide text is derived from it. Bridges are numbered along the chain shown (N, C = ends). The star is where a group is joined. Cy5(nonsulfonated) = CN1C(=CC=CC=CC2=[N+](CCCCCC(=O)*)c3ccccc3C2(C)C)C(C)(C)c2ccccc21

How the values were obtained:
[1] = target: T1, ADAMTS4 (Homo sapiens, UniProt O75173); test: MST instrument, ligand-dependent fluorescence change, Cy5-labeled peptides vs ADAMTS4 (incl. alanine scan); assay type: binding; conditions: for binding to ADAMTS4 (ligand-dependent fluorescence change), in words: Cy5-labeled peptide 3 nM, 25 °C, n = 3
T1 construct: This is consistent with the recombinant proteins, we used in the screening process; purchased BioTeZ Berlin-Buch GmbH 30 400 102
T1 sequence (O75173 213-685): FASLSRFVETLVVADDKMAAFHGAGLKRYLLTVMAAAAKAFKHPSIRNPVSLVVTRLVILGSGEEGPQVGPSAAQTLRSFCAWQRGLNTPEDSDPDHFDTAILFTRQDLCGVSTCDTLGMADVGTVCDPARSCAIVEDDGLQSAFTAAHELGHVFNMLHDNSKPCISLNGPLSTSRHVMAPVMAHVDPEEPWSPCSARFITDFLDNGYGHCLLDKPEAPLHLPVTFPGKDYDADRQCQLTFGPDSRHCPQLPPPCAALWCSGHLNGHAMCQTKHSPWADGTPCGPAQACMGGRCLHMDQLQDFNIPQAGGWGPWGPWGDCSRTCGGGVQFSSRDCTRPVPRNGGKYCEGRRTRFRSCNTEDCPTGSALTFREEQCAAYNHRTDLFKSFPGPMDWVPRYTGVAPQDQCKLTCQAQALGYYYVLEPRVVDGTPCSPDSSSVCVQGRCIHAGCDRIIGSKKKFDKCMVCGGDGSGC
Experimental: Microscale thermophoresis (MST) was performed on a Monolith Pico (NanoTemper, Munich, Germany). The Cy5-labeled peptides were diluted into the MST buffer (150 mM NaCl, 50 mM TRIS-HCl, 5 mM CaCl2, and Tween-20) to reach a dilution of 6 nM. ADAMTS4, ADAMTS5, and ADAMTS1 were directly used with the supplied concentration. For ADAMTS4, the starting concentration was 4.96 µM, while for ADAMTS1 it was 4.88 µM and for ADAMTS5 it was 2.46 µM. […] 20 µl of the protein solutions were transferred into a PCR tube. 10 µl of this first vial was transferred into a second vial and mixed by pipetting with 10 µl of the MST buffer. The dilution series was continued 14 times. From tube 16, 10 µl were removed. Into all 16 tubes, 10 µl of the respective peptide solution were added and mixed by pipetting. The samples were incubated for 20 min and subsequently transferred to premium capillaries (NanoTemper, Munich, Germany). The capillaries were transferred into the Monolith tray and measured with 10% excitation power on the pico-red excitation on high MST power at 25 °C. Analysis was performed with MO.Affinity Analysis v3.0.1 (NanoTemper, Munich, Germany) and Origin 2022 (OriginLab Corporation, Northampton, MA). […] We checked for ADAMTS4 and the ADAMTS4-specific-Cy5-labeled probe via a saturation test for specifying the ligand-dependent fluorescence change. Therefore, the three highest ligand concentrations and the three lowest ligand concentrations of the measurement were used and centrifuged for 15 min at 16060 x g at 20 °C. Of each concentration, 7 µl were picked and mixed with 7 µl of a 10 M urea solution each. The samples were heated at 95 °C for 5 min and measured in the MST. […] Each measurement was repeated three times independently and the binding constant was calculated by merging all three measurements. […] The data were normalized using MO Affinity Analysis v3.0.1 and the fraction bound [−] was shown. […] Therefore, the percentage variance of the values to the average was plotted.
All measurements were performed with 10% LED power, high MST power and at 25 °C. The ligand dependent fluorescence change was used for determining the binding. […] The concentrations of the peptide were kept constant (3 nM in the measurement), while the proteins were diluted in the same manner as for ADAMTS4. […] The Cy5-labeled peptides (3 nM in the measurement) were kept constant, while ADAMTS4 was diluted in the same manner for each peptide (n=3 biologically independent measurements for each peptide; the data are presented as mean values ± SD). […] MST: microscale thermophoresis; nM: nanomolar; His: L-histidine; LED: light-emitting diode; n/a: not available; KD: binding constant.

[2] = target: T1, ADAMTS4; test: MST trace (MST points at 2.5 seconds) of peptides without fluorescence change; assay type: binding; conditions: high MST power
Experimental: Microscale thermophoresis (MST) was performed on a Monolith Pico (NanoTemper, Munich, Germany). The Cy5-labeled peptides were diluted into the MST buffer (150 mM NaCl, 50 mM TRIS-HCl, 5 mM CaCl2, and Tween-20) to reach a dilution of 6 nM. ADAMTS4, ADAMTS5, and ADAMTS1 were directly used with the supplied concentration. For ADAMTS4, the starting concentration was 4.96 µM, while for ADAMTS1 it was 4.88 µM and for ADAMTS5 it was 2.46 µM. Since we saw a loss of binding after centrifugation, the use of protein concentrators were inappropriate. 20 µl of the protein solutions were transferred into a PCR tube. 10 µl of this first vial was transferred into a second vial and mixed by pipetting with 10 µl of the MST buffer. […] The capillaries were transferred into the Monolith tray and measured with 10% excitation power on the pico-red excitation on high MST power at 25 °C. […] We detected a ligand-dependent fluorescence change for some of the systems. We checked for ADAMTS4 and the ADAMTS4-specific-Cy5-labeled probe via a saturation test for specifying the ligand-dependent fluorescence change. […] The samples were heated at 95 °C for 5 min and measured in the MST. The fluorescence difference between the concentrations was afterward at the same level. Each measurement was repeated three times independently and the binding constant was calculated by merging all three measurements. […]

[3] = target: T2, ADAMTS4 in the aortic wall of ApoE−/− mice (Mus musculus, UniProt Q8BNJ2); test: In vivo MRI with negative control probe and ADAMTS4-specific probe; conditions: for CNR post administration, individual animals: d1 = negative control probe, d2 = ADAMTS4-specific probe, 0.13 mmol/kg
T2 construct: from tissue
T2 sequence (Q8BNJ2 209-833): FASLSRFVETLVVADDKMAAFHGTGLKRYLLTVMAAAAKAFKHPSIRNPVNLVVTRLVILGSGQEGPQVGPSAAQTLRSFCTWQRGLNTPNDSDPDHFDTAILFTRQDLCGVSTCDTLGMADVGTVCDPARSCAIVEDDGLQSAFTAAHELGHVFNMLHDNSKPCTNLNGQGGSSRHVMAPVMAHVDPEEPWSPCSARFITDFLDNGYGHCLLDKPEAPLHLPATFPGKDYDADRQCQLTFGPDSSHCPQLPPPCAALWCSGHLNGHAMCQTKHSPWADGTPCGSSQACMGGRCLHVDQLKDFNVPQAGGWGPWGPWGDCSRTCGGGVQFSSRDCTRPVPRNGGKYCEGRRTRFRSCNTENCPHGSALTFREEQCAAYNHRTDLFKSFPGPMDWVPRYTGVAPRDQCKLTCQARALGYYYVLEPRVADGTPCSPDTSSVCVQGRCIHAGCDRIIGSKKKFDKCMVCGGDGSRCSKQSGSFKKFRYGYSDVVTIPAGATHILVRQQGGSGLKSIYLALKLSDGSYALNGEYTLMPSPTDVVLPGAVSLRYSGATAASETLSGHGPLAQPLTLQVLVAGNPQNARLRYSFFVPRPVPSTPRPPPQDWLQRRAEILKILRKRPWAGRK
Experimental: In vivo MR imaging was performed in 6 ApoE^−/− mice (n = 6): three mice (n = 3) received AngII through the osmotic minipumps, three mice (n = 3) received saline, serving as the control group. MR imaging was performed 4 weeks after minipump implantation. On day 1, a native MR scan was followed by the intravenous injection of the negative control peptide (0.13 mmol/kg) and a subsequent MR scan. 24 h later, mice were imaged prior to and following the intravenous administration of the ADAMTS4-specific probe (0.13 mmol/kg).
Analysis of resulting MR images was performed using OsiriX (version 7.1, OsiriX Foundation, Bernex, Switzerland). All morphometric measurements were conducted on high-resolution MRI images. In order to assess the signal intensities, regions of interest (ROIs) were measured as areas of signal enhancement, which were co-localized with areas of aneurysmal-aortic tissue. For these areas, the CNR was calculated using the following formula: CNR = (Combined vessel-wall and aneurysmal-aortic-tissue-signal − blood-signal)/standard-deviation-signal (noise). The signal of noise was defined as the standard deviation in pixel intensity from an ROI placed in the background air anterior to the aorta.

[4] = target: ADAMTS4-specific peptide with the glycine exchanged for alanine (alanine scan peptide), Cy5-labeled; test: MST; Monolith Pico; read-out is the ligand-dependent fluorescence change, not the thermophoresis; Cy5-labeled peptide constant (6 nM solution), protein in a 16-step 1:1 dilution series; 150 mM NaCl, 50 mM TRIS-HCl, 5 mM CaCl2, Tween-20; 25 °C
[5] = target: ADAMTS4-specific probe, Cy5-labeled (cyclic peptide Cys*-Ser-Arg-Arg-Gly-Cys*-Ser with peptide linker); test: as above

Molecule: C[C@@H]1NC(=O)[C@H](CCCNC(=N)N)NC(=O)[C@H](CCCNC(=N)N)NC(=O)[C@H](CO)NC(=O)[C@@H](N)CSSC[C@@H](C(=O)N[C@@H](CO)C(=O)NCC(=O)NCC(=O)N[C@@H](CO)C(=O)NCC(=O)NCC(=O)N[C@@H](CCCCNC(=O)CCCCCN2C(=CC=CC=CC3=[N+](C)c4ccccc4C3(C)C)C(C)(C)c3ccccc32)C(=O)NCC(N)=O)NC1=O [ADAMTS4-specific probe-Gly] (H-CSRRACSGGSGGK(Cy5(nonsulfonated))G-NH2; disulfide 1-6; N-terminus and C-terminus assumed)
- binding to ADAMTS4 (ligand-dependent fluorescence change), in words [1]: decrease the binding; also recorded: a ligand dependent fluorescence change occurs
- decrease in the binding affinity versus the parent peptide ([1]; alanine scan): around ten times

Molecule: Cys*-Phe-His-Pro-Tyr-Cys*-Ser (disulfide) [negative control peptide]
- binding to ADAMTS4 (ligand-dependent fluorescence change), in words [1]: could not find binding; also recorded: no fluorescence change was detectable; also recorded: did not show any binding
- binding in the MST trace [2]: no binding occurs

- CNR post administration, individual animals ([3]; AAA (AngII) mice): 7.71 and 5.8 and 6.78
- CNR post administration, individual animals ([3]; control (c, saline) mice): 4.54 and 4.4 and 5.52
Molecule: Cys*-Phe-His-Pro-Tyr-Cys*-linker (DOTA-Gd) (disulfide) [negative control probe, Cys*-Phe-His-Pro-Tyr-Cys*-linker (DOTA-Gd), similar size to the ADAMTS4-specific probe]
- increase in MR signal / CNR in the aortic wall, in words ([3]; 0.13 mmol/kg i.v., 4 weeks after minipump implantation, n = 6): no significant increase; also recorded: significantly lower increase

- Kd [4]: 609 nM
- Kd [5]: 51 nM
B1: ADAMTS4 (A Disintegrin And Metalloproteinase with ThromboSpondin motifs 4), recombinant human (enzyme)
chain: FASLSRFVETLVVADDKMAAFHGAGLKRYLLTVMAAAAKAFKHPSIRNPVSLVVTRLVILGSGEEGPQVGPSAAQTLRSFCAWQRGLNTPEDSDPDHFDTAILFTRQDLCGVSTCDTLGMADVGTVCDPARSCAIVEDDGLQSAFTAAHELGHVFNMLHDNSKPCISLNGPLSTSRHVMAPVMAHVDPEEPWSPCSARFITDFLDNGYGHCLLDKPEAPLHLPVTFPGKDYDADRQCQLTFGPDSRHCPQLPPPCAALWCSGHLNGHAMCQTKHSPWADGTPCGPAQACMGGRCLHMDQLQDFNIPQAGGWGPWGPWGDCSRTCGGGVQFSSRDCTRPVPRNGGKYCEGRRTRFRSCNTEDCPTGSALTFREEQCAAYNHRTDLFKSFPGPMDWVPRYTGVAPQDQCKLTCQAQALGYYYVLEPRVVDGTPCSPDSSSVCVQGRCIHAGCDRIIGSKKKFDKCMVCGGDGSGC
